Target: P. falciparum apicoplast DNA polymerase (Pf-apPOL) (Plasmodium falciparum, UniProt Q8ILY1)
Assay: Fluorescence-based high-throughput DNA polymerase assay (molecular beacon), primary screen and dose-response
Type: biochemical
Method: The HT assay employs a molecular beacon, a stem-loop DNA template with a Cy3 dye and the Black Hole Quencher on the 3′ and 5′ ends of the DNA, respectively. Pf-apPOL concentration is based on a calculated absorptivity of ε280 = 56750 M^−1 cm^−1. Reactions were carried out at 25 °C, using Corning 3575 […] (well-volume, 20 µL). Assays testing for compound inhibition composed of reaction buffer (pH 7.9 in 50 mM potassium acetate, 20 mM Tris-acetate and 10 mM magnesium acetate), Pf-apPOL (20 nM), DNA substrate (20 nM), dNTPs (6 µM), and compound (10 µM in DMSO). The DNA and nucleotide substrates (dNTPs) were at concentrations of 20 nM and 6 µM, respectively, in the assay. Pf-apPOL was incubated in the reaction buffer with dNTPs and the compound of interest (10 µM, in the assay) at 25 °C for 10 min. The DNA substrate was then added and the reaction was allowed to proceed for 90 min at 25 °C.
Each assay plate contained 16 negative controls (no Pf-apPOL, DMSO present) and 16 positive controls (Pf-apPOL present, no DMSO). The fluorescence of each well was determined using a BioTek Synergy Neo fluorescence plate reader using excitation and emission wavelengths of 555 and 570 nm, respectively.
In the above, Min is the average of fluorescence emission of the negative controls (substrate only), Max the average fluorescence emission from the positive controls (enzyme + substrate), and Test the emission from the assays in the presence of compounds (enzyme + compound + substrates). […] […] The IC50 of each compound was determined using Equation (2): (2) IC50= Vmax/(1+ (I/IC50)^n)
In the above, n measures cooperativity, with n > 1 indicating synergistic binding of more than a single molecule of the compound.
To identify apPOL inhibitors we utilised our previously developed high-throughput DNA polymerase assay. The HT assay is based on a molecular beacon DNA template that forms a stem-loop with a Cy3 dye and the Black Hole Quencher on the 3′ and 5′ ends of the DNA, respectively. DNA polymerase activity extends an annealed primer through the stem region, displacing the fluorophore from the quencher, thereby increasing its fluorescence (Figure 1(A)). The assay accurately recapitulates the kinetic behaviour of apPOL, as measured through more conventional low-throughput gel-based assays. The Z′ factor for the assay described here was 0.9 across all plates (data not shown).
Figure 1. High-throughput screening. (A) The fluorescent-based DNA polymerase assay used to screen the compound libraries. The DNA template strand is a hairpin loop with a primer annealed to the loop. The 3’ end of the primer is 11 bases away from the 6 bp duplex. Strand displacement activity of the DNA polymerase separates the Cy3 dye from the Black hole quencher leading to an increase in fluorescent signal. (B) The high-throughput assay workflow. The DNA polymerase is incubated with […] compound for 10 min prior to addition of the hairpin substrate. The reaction is quenched at 3 different time points and the fluorescent signal is measured and % inhibition is determined using the provided equation.

[1] = primary screen value of the 186 hits; unit not given; 90 min, 10 µM

P. falciparum apicoplast DNA polymerase (Pf-apPOL), sequence (Q8ILY1 entry or part of it): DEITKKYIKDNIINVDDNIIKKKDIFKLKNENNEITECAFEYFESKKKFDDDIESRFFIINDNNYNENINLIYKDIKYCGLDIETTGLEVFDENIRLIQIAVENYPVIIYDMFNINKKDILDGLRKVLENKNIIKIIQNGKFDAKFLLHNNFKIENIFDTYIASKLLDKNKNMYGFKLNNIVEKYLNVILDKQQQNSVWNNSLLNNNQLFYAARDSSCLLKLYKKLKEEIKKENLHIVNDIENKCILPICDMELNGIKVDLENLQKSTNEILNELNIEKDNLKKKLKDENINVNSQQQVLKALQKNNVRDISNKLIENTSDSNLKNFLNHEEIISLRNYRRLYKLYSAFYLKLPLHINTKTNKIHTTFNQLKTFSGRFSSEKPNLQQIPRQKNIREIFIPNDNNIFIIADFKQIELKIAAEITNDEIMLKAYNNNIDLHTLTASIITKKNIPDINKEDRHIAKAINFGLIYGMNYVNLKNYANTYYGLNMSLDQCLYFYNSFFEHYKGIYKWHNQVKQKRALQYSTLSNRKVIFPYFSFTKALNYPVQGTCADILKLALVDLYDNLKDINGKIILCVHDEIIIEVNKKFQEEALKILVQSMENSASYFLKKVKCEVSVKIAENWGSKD

O=C(O)c1cccc(N2N=C(C(F)(F)F)/C(=C/c3ccc(-c4ccccc4[N+](=O)[O-])o3)C2=O)c1 [Molecule 100, O=C1N(N=C(/C/1=C/c1ccc(o1)c1ccccc1N(=O)=O)C(F)(F)F)c1cccc(c1)C(=O)O]
% inhibition Apo pol 10' (DRC-1; 10'; concentration 2.5): 26.1484%
% inhibition Apo pol 10' (DRC-1; 10'; concentration 5): 12.0969%
% inhibition Apo pol 10' (DRC-1; 10'; concentration 10): 67.0777%
% inhibition Apo pol 10' (DRC-1; 10'; concentration 20): 85.2952%
% inhibition Apo pol 10' (DRC-1; 10'; concentration 40): 91.4411%
% inhibition Apo pol 10' (DRC-1; 10'; concentration 80): 91.0692%
% inhibition Apol 90' (DRC-1; 90'; concentration 2.5): 19.5679%
% inhibition Apol 90' (DRC-1; 90'; concentration 5): 4.613%
% inhibition Apol 90' (DRC-1; 90'; concentration 10): 58.3032%
% inhibition Apol 90' (DRC-1; 90'; concentration 20): 83.4364%
% inhibition Apol 90' (DRC-1; 90'; concentration 40): 89.1977%
% inhibition Apol 90' (DRC-1; 90'; concentration 80): 89.0036%
% inhibition apPOL 180' (DRC-1; 180'; concentration 2.5): 13.4923%
% inhibition apPOL 180' (DRC-1; 180'; concentration 5): 1.454%
% inhibition apPOL 180' (DRC-1; 180'; concentration 10): 45.1585%
% inhibition apPOL 180' (DRC-1; 180'; concentration 20): 77.5112%
% inhibition apPOL 180' (DRC-1; 180'; concentration 40): 84.5547%
% inhibition apPOL 180' (DRC-1; 180'; concentration 80): 85.8771%
% inhibition Apo pol 5' (DRC-2; 5'; concentration 2.5): 20%
% inhibition Apo pol 5' (DRC-2; 5'; concentration 5): 27%
% inhibition Apo pol 5' (DRC-2; 5'; concentration 10): 47%
% inhibition Apo pol 5' (DRC-2; 5'; concentration 20): 55%
% inhibition Apo pol 5' (DRC-2; 5'; concentration 40): 63%
% inhibition Apo pol 5' (DRC-2; 5'; concentration 80): 64%
% inhibition Apol 40' (DRC-2; 40'; concentration 2.5): 23%
% inhibition Apol 40' (DRC-2; 40'; concentration 5): 30%
% inhibition Apol 40' (DRC-2; 40'; concentration 10): 51%
% inhibition Apol 40' (DRC-2; 40'; concentration 20): 65%
% inhibition Apol 40' (DRC-2; 40'; concentration 40): 76%
% inhibition Apol 40' (DRC-2; 40'; concentration 80): 78%
% inhibition ApPOL 90' (DRC-2; 90'; concentration 2.5): 21%
% inhibition ApPOL 90' (DRC-2; 90'; concentration 5): 29%
% inhibition ApPOL 90' (DRC-2; 90'; concentration 10): 51%
% inhibition ApPOL 90' (DRC-2; 90'; concentration 20): 65%
% inhibition ApPOL 90' (DRC-2; 90'; concentration 40): 77%
% inhibition ApPOL 90' (DRC-2; 90'; concentration 80): 81%
% inhibition apPOL 180' (DRC-2; 180'; concentration 2.5): 14%
% inhibition apPOL 180' (DRC-2; 180'; concentration 5): 20%
% inhibition apPOL 180' (DRC-2; 180'; concentration 10): 43%
% inhibition apPOL 180' (DRC-2; 180'; concentration 20): 60%
% inhibition apPOL 180' (DRC-2; 180'; concentration 40): 77%
% inhibition apPOL 180' (DRC-2; 180'; concentration 80): 84%
% inhibition Apo pol 5' (conc. 2.5; 5'; DRC-2): 20%
% inhibition apPOL 180' (conc. 5; 180'; DRC-2): 20%
% inhibition Apol 40' (conc. 10; 40'; DRC-2): 51%
% inhibition ApPOL 90' (conc. 10; 90'; DRC-2): 51%
% inhibition Apol 40' (conc. 20; 40'; DRC-2): 65%
% inhibition ApPOL 90' (conc. 20; 90'; DRC-2): 65%
% inhibition ApPOL 90' (conc. 40; 90'; DRC-2): 77%
% inhibition apPOL 180' (conc. 40; 180'; DRC-2): 77%
DNA Pol (primary screen value by plate and well; 90 min, 10 µM): 55
DNA Pol [1]: 55

COc1cc(/C=C2\C(=O)N(c3ccc(C(=O)O)cc3)N=C2C(F)(F)F)ccc1OCC(C)C [KU0069072]
% inhibition Apo pol 10' (DRC-1; concentration 2.5; 10'): 27.3475%
% inhibition Apol 90' (DRC-1; concentration 2.5; 90'): 15.3217%
% inhibition apPOL 180' (DRC-1; concentration 2.5; 180'): 6.275%
% inhibition Apo pol 10' (DRC-1; concentration 5; 10'): 10.3149%
% inhibition Apol 90' (DRC-1; concentration 5; 90'): -0.5045%
% inhibition apPOL 180' (DRC-1; concentration 5; 180'): -5.844%
% inhibition Apo pol 10' (DRC-1; concentration 10; 10'): 46.067%
% inhibition Apol 90' (DRC-1; concentration 10; 90'): 33.8794%
% inhibition apPOL 180' (DRC-1; concentration 10; 180'): 21.4839%
% inhibition Apo pol 10' (DRC-1; concentration 20; 10'): 70.4954%
% inhibition Apol 90' (DRC-1; concentration 20; 90'): 63.3531%
% inhibition apPOL 180' (DRC-1; concentration 20; 180'): 50.844%
% inhibition Apo pol 10' (DRC-1; concentration 40; 10'): 88.0061%
% inhibition Apol 90' (DRC-1; concentration 40; 90'): 82.4517%
% inhibition apPOL 180' (DRC-1; concentration 40; 180'): 75.9132%
% inhibition Apo pol 10' (DRC-1; concentration 80 (unit not given); 10'): 95.6412%
% inhibition Apol 90' (DRC-1; concentration 80; 90'): 93.9861%
% inhibition apPOL 180' (DRC-1; concentration 80; 180'): 92.8608%
% inhibition Apo pol 5' (DRC-2; concentration 2.5; 5'): 4%
% inhibition Apol 40' (DRC-2; concentration 2.5; 40'): 4.27%
% inhibition ApPOL 90' (DRC-2; concentration 2.5; 90'): 2.38%
% inhibition apPOL 180' (DRC-2; concentration 2.5; 180'): 0.394%
% inhibition Apo pol 5' (DRC-2; concentration 5; 5'): -3.52%
% inhibition Apol 40' (DRC-2; concentration 5; 40'): -5%
% inhibition ApPOL 90' (DRC-2; concentration 5; 90'): -7%
% inhibition apPOL 180' (DRC-2; concentration 5; 180'): -9%
% inhibition Apo pol 5' (DRC-2; concentration 10; 5'): 24%
% inhibition Apol 40' (DRC-2; concentration 10; 40'): 28%
% inhibition ApPOL 90' (DRC-2; concentration 10; 90'): 25%
% inhibition apPOL 180' (DRC-2; concentration 10; 180'): 15%
% inhibition Apo pol 5' (DRC-2; concentration 20; 5'): 44%
% inhibition Apol 40' (DRC-2; concentration 20; 40'): 51%
% inhibition ApPOL 90' (DRC-2; concentration 20; 90'): 50%
% inhibition apPOL 180' (DRC-2; concentration 20; 180'): 40%
% inhibition Apo pol 5' (DRC-2; concentration 40; 5'): 59%
% inhibition Apol 40' (DRC-2; concentration 40; 40'): 70%
% inhibition ApPOL 90' (DRC-2; concentration 40; 90'): 71%
% inhibition apPOL 180' (DRC-2; concentration 40; 180'): 66%
% inhibition Apo pol 5' (DRC-2; concentration 80; 5'): 65%
% inhibition Apol 40' (DRC-2; concentration 80; 40'): 78%
% inhibition ApPOL 90' (DRC-2; concentration 80; 90'): 80%
% inhibition apPOL 180' (DRC-2; concentration 80; 180'): 82%
DNA Pol [1]: 76
DNA Pol (primary screen value; head prints only 'DNA Pol'; 90 min, 10 µM): 76

Reference: article PMC9090415, “Discovery of small molecule inhibitors of Plasmodium falciparum apicoplast DNA polymerase” (Journal of Enzyme Inhibition and Medicinal Chemistry, 2022)
